Data on 3 compounds can be found in patent US20010034448A1, “New compounds, their preparation and use” (priority 1998, published 2001).

For one data set, the system named is RAR. Conditions: Heyman et al. Cell 1992, 68, 397-406; cited from earlier work.
The test system of a further data set is RXR/PPAR heterodimers. Conditions: Mukherjee et al., Nature 1997, 386, 407-410; WO 97/10819; cited from earlier work.
The next data set concerns ob/ob and db/db mice. As to conditions: Mukherjee et al., Nature 1997; cited from earlier work.

`CC1=C(/C=C/C(C)=C\C=C\C(C)=C\C(=O)O)C(C)(C)CCC1` [9-cis retinoic acid]: the “activation of RAR” value with RAR was “activates both RXR and RAR”.
One may read the melting point as the temperature, or range, at which the solid turns liquid. As for `Cc1cc2c(cc1C13CC1CCC3=Cc1ccc(C(=O)O)cc1)C(C)(C)CCC2(C)C` (stereo not shown) [Example 1, 4-[1-(3,5,5,8,8-Pentamethyl-5,6,7,8-tetrahydro-naphthalen-2-yl)-bicyclo[3.1.0]hex-2-ylidenemethyl]-benzoic Acid], the melting point was in the range of 274.5 to 275.2 °C.
Consider `Cc1cc2c(cc1C1(c3ccc(C(=O)O)cn3)CC1)C(C)(C)CCC2(C)C` [LG 100268], for which the “activation of RXR/PPAR heterodimers” value in the data set with RXR/PPAR heterodimers is given as “activate RXR/PPAR heterodimers”. Further, the “glucose, insulin and triglyceride levels” value with ob/ob and db/db mice is “reduction in glucose, insulin and triglyceride levels”.
